Read-outs that look alike come from different tables or passages of the source.
Key:
[1] = tested on: GM16513 cells; assay type: cell-based; settings: 3 days, PI positive cells (dead cells)
[2] = tested on: PEX405 cells; assay: Catalase import immunofluorescence, high-content screening (% importing cells); assay type: cell-based, human; settings: PEX405 cells, 3 days
[3] = tested on: GM16513 cells; assay: as above; assay type: cell-based, human; settings: GM16513 cells, 3 days; for EC50: read-out: EC50; for Emax: read-out: Max Efficacy (% Importing cells)
[4] = tested on: PEX405 cells; assay type: cell-based; settings: 3 days, PI positive cells (dead cells)
[5] = dose response with 6 concentrations
[6] = Homo sapiens, 72 h, dose response with 6 concentrations

| Molecule | % PI+ cells ([1]; 1.3 µM) [%] | % PI+ cells ([1]; 10 µM) [%] | % Importing cells ([2]; 1.3 µM) [%] | % Importing cells ([2]; 10 µM) [%] | % Importing cells ([3]; 1.3 µM) [%] | % Importing cells ([3]; 10 µM) [%] | % PI+ cells ([4]; 1.3 µM) [%] | % PI+ cells ([4]; 10 µM) [%] | Max Efficacy (% Importing cells) [3, 5] [%] | EC50 [3, 5] [µM] | EC50 [3, 6] [µM] | Emax [3, 6] [%] |
| --- | --- | --- | --- | --- | --- | --- | --- | --- | --- | --- | --- | --- |
| O=C(CCCCCCC(=O)NO)NO [Suberoyl bis-hydroxamic acid] | 1 | 2 | 4 | 10 | 13 | 57 | 1 | 1 | – | – | – | – |
| O=C1CCc2c(ccc3ccccc23)O1 [Splitomicin] | 1 | 1 | 5 | 5 | 33 | 25 | 0 | 1 | – | – | – | – |
| O=C(CCCCCCC(=O)Nc1ccc(CN[C@H](C(=O)OC2CCCC2)c2ccccc2)cc1)NO [Tefinostat] | 2 | 2 | 24 | 24 | 33 | 91 | 1 | 23 | 97 | 4 | – | – |
| Nc1ccccc1NC(=O)c1ccc(CCCC(=O)Nc2ccc([C@@H]3C[C@H]3N)cc2)cc1 [Corin] | 5 | 34 | 17 | 11 | 59 | 44 | 2 | 66 | – | – | – | – |
| O=C(c1ccc(Cl)cc1Cl)n1nnc2ccccc21 [ITSA-1] | 1 | 1 | 3 | 1 | 9 | 12 | 0 | 0 | – | – | – | – |
| CCCCNNC(=O)c1ccc(-c2cccc(F)c2F)cc1 [SR-4370] | 1 | 2 | 5 | 7 | 26 | 30 | 0 | 1 | – | – | – | – |
| O=C(NO)c1ccc(CN(c2cnccn2)c2cnccn2)cc1 [KA2507] | 1 | 2 | 2 | 18 | 17 | 52 | 1 | 1 | – | – | 14.3 | 100 |
| Nc1ccccc1NC(=O)c1ccc(CNc2nccc(-c3cccnc3)n2)cc1 [Mocetinostat] | 4 | 9 | 15 | 9 | 60 | 39 | 3 | 29 | – | – | 0.25 | 50 |
| CCCCNNC(=O)c1ccc(Br)cc1 [UF010] | 1 | 1 | 3 | 2 | 12 | 16 | 0 | 1 | – | – | – | – |
| CC(C)(CNC(=O)c1cccc(-c2noc(C(F)(F)F)n2)c1)c1coc(-c2ccccc2)n1 [TMP195] | 1 | 1 | 2 | 1 | 13 | 8 | 1 | 1 | – | – | – | – |
| O=C(CCCCCN1C(=O)c2cccc3cccc(c23)C1=O)NO [Scriptaid] | 2 | 8 | 15 | 16 | 57 | 92 | 1 | 6 | – | – | – | – |
| Oxamflatin | – | – | 33 | 15 | 99 | 59 | – | – | – | – | – | – |
| O=C(NO)C(c1ccc(-c2ncc(C(F)(F)F)cn2)cc1)c1ccccc1F (centres unmarked) [CHDI-390576] | – | – | 2 | 0 | 10 | 4 | – | – | – | – | – | – |
| Cc1ccc(C(=O)NCCCCCC(=O)Nc2ccccc2N)cc1 [RG2833] | 1 | 3 | – | – | – | – | – | – | – | – | – | – |
| Cc1nn(C)cc1CN1CCC(c2ccc(C(=O)Nc3ccccc3N)cc2)CC1 [CXD101] | 2 | 7 | 19 | 4 | – | – | 0 | 8 | – | – | – | – |

From EP4410284A1, “COMPOUND AND METHOD FOR THE TREATMENT OF ZELLWEGER SPECTRUM DISORDER” (Apteeus, priority 2023, dated 2024)
